Patent publication US6638981B2, “Topical compositions and methods for treating pain” (EpiCept Corporation, priority 2001, dated 2003)
Where a name gives a salt, the structure may show the parent alone.

Test: Chemical and physical stability studies under ICH storage conditions (extraction, HPLC, appearance)
Format: physicochemical
Conditions: in Composition A; for calculated initial percentage of actives: before storage, HPLC; for calc. percentage of actives after storage for one month, 25° C. / calc. percentage of actives after storage for two months, 25° C.: 25° C./60% RH; for calc. percentage of actives after storage for one month, 30° C. / calc. percentage of actives after storage for two months, 30° C.: 30° C./60% RH; for calc. percentage of actives after storage for one month, 40° C. / calc. percentage of actives after storage for two months, 40° C.: 40° C./75% RH

Row | Structure (SMILES) | calculated initial percentage of actives | calc. percentage of actives after storage for one month, 25° C. | calc. percentage of actives after storage for two months, 25° C. | calc. percentage of actives after storage for one month, 30° C. | calc. percentage of actives after storage for two months, 30° C. | calc. percentage of actives after storage for one month, 40° C. | calc. percentage of actives after storage for two months, 40° C.
1 | CN(C)CCC=C1c2ccccc2CCc2ccccc21 [Amitriptyline Hydrochloride, Amitriptyline hydrochloride] | 102.5% | 103% | 101% | 102% | 102% | 103% | 102%
2 | CNC1(c2ccccc2Cl)CCCCC1=O (stereo not shown) [Ketamine Hydrochloride, Ketamine hydrochloride] | 100.4% | 103% | 100% | 102% | 100% | 103% | 102%
3 | COC(=O)c1ccc(O)cc1 [Methylparaben] | 104.4% | 103% | 101% | 102% | 102% | 102% | 102%
4 | CCCOC(=O)c1ccc(O)cc1 [Propylparaben] | 101.8% | 102% | 102% | 102% | 103% | 102% | 103%
